Experimental data published in PMC6696947 (European journal of pharmacology, 2019).
Entries after “also recorded” stand apart in the source; their conditions may differ.

What was measured:
rats [1] = conditions: positive control; ref Carlezon et al., 2006; Curzon et al., 2009; cited from earlier work
rats [2] = assay: Self-administration model; assay type: in vivo, male Sprague-Dawley rats; conditions: n=8
rats [3] = assay: Acetic acid-induced writhing model; assay type: in vivo, male Sprague-Dawley rats; conditions: test compound 20 mg/kg p.o.; morphine 10 mg/kg i.p.; Student's t-test, P<0.05
rats [4] = assay: Hot plate model; assay type: in vivo, male Sprague-Dawley rats; conditions: JT07/JT09 20 mg/kg p.o.; morphine 10 mg/kg i.p.; %MPE, 53.0 °C, cut-off 30 s
rats [5] = assay: Locomotor open field test; conditions: JT09 20 mg/kg p.o.; morphine 10 mg/kg i.p.
[6] = no reference given, cited from earlier work
[7] = no reference given, cited from earlier work; remark: listed apart in the source
[8] = no reference given; cited from earlier work

COC(=O)[C@@H]1C[C@H](OC(C)=O)C(=O)[C@H]2[C@@]1(C)CC[C@H]1C(=O)O[C@H](c3ccoc3)C[C@]21C [Salvinorin A]
depressant-like effects (in words) (rats [1]): known depressant-like effects at high dose levels, such as dysphoria

COC(=O)[C@H]1[C@@H](OC(=O)c2ccccc2)C[C@@H]2CC[C@H]1N2C [cocaine]
number of cocaine infusions / active lever presses over 7 days (rats [2]; cocaine 50ug/50ul bolus after JT09, nose poke, F(6,42)=4.6, P<0.0012): number of cocaine infusions increased over the 7 days; also recorded: number of cocaine active lever presses increased over the 7 days; also recorded: expected increase in the number of lever presses over the seven-day period
cocaine infusions / active lever presses on days 6 and 7 (rats [2]; cocaine after JT09, Dunnett post hoc, P<0.05): significantly more infusion on days 6 and 7; also recorded: significantly more active lever presses on days 6 and 7

CN1CC[C@]23c4c5ccc(O)c4O[C@H]2[C@@H](O)C=C[C@H]3[C@H]1C5 [morphine]
potency/efficacy versus morphine in writhing (peripheral pain) (rats [3]): comparable analgesic activity
analgesic activity in hot plate model (rats [4]): potent analgesic
sedation (in words) (rats [5]): highly sedative

D-Phe-D-Phe-D-Nle-D-Arg-NH2 [CR665]
peripheral to central selectivity in analgesic models (in words) ([6]; i.v., background statement in abstract): high peripheral to central selectivity
peripheral-selectivity ([6]; peripheral versus central): 548 fold
oral activity (in words) ([7]; background statement in abstract): inactive when administered orally
oral bioavailability (in words) [7]: does not have significant oral bioavailability
efficacy in visceral and neuropathic pain (in words) [8]: has demonstrated efficacy in the treatment of visceral and neuropathic pain without the negative side-effects of centrally acting KOAs
